{
  "source": "patent US11866692B2",
  "about": "“Fermentation fungal substance of astragalus membranaceus paecilomyces cicadae and its use” (BinZhou Medical University, priority 2019, dated 2024)",
  "tested_on": "rats with hyperuricemia",
  "experiment": "Efficacy test in potassium oxonate-induced hyperuricemia rats (serum UA, BUN, CRE, TG)",
  "format": "in vivo, Sprague Dawley (SD) rats",
  "details": "gavage twice each day for 14 days, 300 mg·kg−1 (benzbromarone 20 mg·kg−1), serum 4 h after last administration",
  "description": "SD rats were randomly divided into normal group, hyperuricemia (HUA) model group, positive medicine control group, Astragalus membranaceus group and fungal substance A group based on body mass, with 8 rats in each group. They were used in experiments after one week of adaptive feeding in an animal room. All groups were fed with normal feed. In addition, the normal group was treated with distilled water by gavage. Other groups were treated with 300 mg·kg^−1 of potassium oxonate by gavage each day for modeling. After 1 hour, the positive medicine control group was treated with 20 mg·kg^−1 of benzbromarone by gavage, the Astragalus membranaceus group was treated with 300 mg·kg^−1 of an Astragalus membranaceus powder solution by gavage, and the fungal substance A group was treated with 300 mg·kg^−1 of a fungal substance A solution by gavage. The treatment was performed twice each day for 14 consecutive days, and the dosage was 10 mL·kg^−1. Four hours after administration on the last day, blood samples were taken from the orbital venous plexus of the rats. The blood samples were stored at 4° C. overnight, and then centrifuged to obtain serum, which was for determination of biochemical indexes. After routine calibration and quality control, the contents of uric acid (UA), urea nitrogen (BUN), creatinine (CRE) and triglyceride (TG) in serum were determined by an automatic biochemical analyzer. All test results are expressed in the form of “mean±standard deviation”. Excel and software SPSS17.0 were utilized for calculation and statistics. After all data were tested for normal distribution and homogeneity of variance, single factor analysis of variance was performed. The difference between the two groups was tested by t-test. When P<0.05, the difference was considered to be statistically significant.",
  "data": [
    {"smiles": "CCc1oc2ccccc2c1C(=O)c1cc(Br)c(O)c(Br)c1", "note": "[benzbromarone]", "values": [
      {"measurement": "Serum UA level compared with the model group", "setting": "FIG. 1", "result": "significantly reduced"},
      {"measurement": "Serum CRE level compared with the model group", "setting": "FIG. 3", "result": "very significantly reduced"},
      {"measurement": "Serum TG level compared with the model group", "setting": "FIG. 4", "result": "significantly reduced"}
    ]}
  ]
}
